Data published in patent US11981658B2, “Substituted aminopyridine compounds as EGFR inhibitors” (YUHAN CORPORATION, priority 2021, dated 2024).
Counter-ions that a name gives are not always drawn. Like-named read-outs stand apart in the source and are kept apart here.

What was measured:
EGFR Del19/C797S = EGFR Del19/C797S (Homo sapiens, UniProt P00533, C797S/DEL746-750); test: Biochemical EGFR kinase inhibition assay (Lance Ultra TR-FRET), double mutant del19/C797S
In short: (§1)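 Step 1: compound in kinase buffer, 0.003–10 μM. Step 2: kinase reaction 1 h at room temperature. Step 4: TR-FRET read at 615/665 nm; IC50 calculated.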

EGFR Del19/T790M/C797S = EGFR Del19/T790M/C797S (Homo sapiens, UniProt P00533, C797S/DEL746-750/T790M); test: Biochemical EGFR kinase inhibition assay (Lance Ultra TR-FRET), triple mutant del19/T790M/C797S
In short: as §1

EGFR L858R/C797S = EGFR L858R/C797S (Homo sapiens, UniProt P00533, C797S/L858R); test: Biochemical EGFR kinase inhibition assay (Lance Ultra TR-FRET), double mutant L858R/C797S
In short: as §1

EGFR wildtype (WT) = EGFR wildtype (WT) (Homo sapiens, UniProt P00533); test: Biochemical EGFR kinase inhibition assay (Lance Ultra TR-FRET), wildtype
In short: as §1

EGFR L858R/T790M/C797S = EGFR L858R/T790M/C797S (Homo sapiens, UniProt P00533, C797S/L858R/T790M); test: Biochemical EGFR kinase inhibition assay (Lance Ultra TR-FRET), triple mutant L858R/T790M/C797S
In short: as §1

[1] = ATP at Km, read-out: IC50 Del19/C797S (nM), Km ATP
[2] = IC50 Del19/C797S (nM), 100 μM ATP
[3] = ATP at Km, read-out: IC50 Del19/T790M/C797S (nM), Km ATP
[4] = IC50 Del19/T790M/C797S (nM), 100 μM ATP
[5] = ATP at Km, read-out: IC50 L858R/C797S (nM), Km ATP
[6] = IC50 L858R/C797S (nM), 100 μM ATP
[7] = ATP at Km, read-out: IC50 WT (nM), Km ATP
[8] = ATP at Km, read-out: IC50 L858R/T790M/C797S (nM), Km ATP
[9] = IC50 L858R/T790M/C797S (nM), 100 μM ATP

Chain of EGFR L858R/T790M/C797S (P00533 25-1210 T790M/C797S/L858R): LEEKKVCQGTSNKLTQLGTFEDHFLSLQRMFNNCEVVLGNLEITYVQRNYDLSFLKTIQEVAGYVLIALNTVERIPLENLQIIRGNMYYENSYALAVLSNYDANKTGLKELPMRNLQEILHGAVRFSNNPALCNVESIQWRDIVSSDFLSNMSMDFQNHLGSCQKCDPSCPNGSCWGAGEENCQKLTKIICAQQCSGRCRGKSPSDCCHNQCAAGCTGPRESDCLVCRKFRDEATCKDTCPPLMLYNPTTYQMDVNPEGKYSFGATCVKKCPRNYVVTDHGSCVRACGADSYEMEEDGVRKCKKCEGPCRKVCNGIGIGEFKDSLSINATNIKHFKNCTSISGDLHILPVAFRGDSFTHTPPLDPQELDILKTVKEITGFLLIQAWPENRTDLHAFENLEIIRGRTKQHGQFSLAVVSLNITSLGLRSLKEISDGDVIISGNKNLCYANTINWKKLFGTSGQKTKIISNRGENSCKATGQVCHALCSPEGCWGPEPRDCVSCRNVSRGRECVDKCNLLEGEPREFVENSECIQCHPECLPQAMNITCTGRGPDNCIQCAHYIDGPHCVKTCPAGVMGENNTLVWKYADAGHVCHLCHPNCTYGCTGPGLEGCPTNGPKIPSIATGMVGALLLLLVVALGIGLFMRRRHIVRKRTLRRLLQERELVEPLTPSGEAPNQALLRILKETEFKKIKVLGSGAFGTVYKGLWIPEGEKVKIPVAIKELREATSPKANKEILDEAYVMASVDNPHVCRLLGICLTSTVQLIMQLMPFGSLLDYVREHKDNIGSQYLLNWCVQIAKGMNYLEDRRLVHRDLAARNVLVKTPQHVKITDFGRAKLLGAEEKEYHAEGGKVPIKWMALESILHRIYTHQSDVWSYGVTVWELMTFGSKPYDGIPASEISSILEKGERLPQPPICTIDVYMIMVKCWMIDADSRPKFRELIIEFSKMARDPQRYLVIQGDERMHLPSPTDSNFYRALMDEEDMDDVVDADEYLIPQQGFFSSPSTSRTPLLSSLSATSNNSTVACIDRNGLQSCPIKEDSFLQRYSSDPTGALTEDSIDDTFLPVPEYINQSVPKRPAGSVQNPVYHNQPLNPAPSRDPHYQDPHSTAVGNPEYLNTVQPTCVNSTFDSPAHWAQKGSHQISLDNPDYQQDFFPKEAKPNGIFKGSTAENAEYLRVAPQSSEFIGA
Chain of EGFR wildtype (WT) (P00533 25-1210): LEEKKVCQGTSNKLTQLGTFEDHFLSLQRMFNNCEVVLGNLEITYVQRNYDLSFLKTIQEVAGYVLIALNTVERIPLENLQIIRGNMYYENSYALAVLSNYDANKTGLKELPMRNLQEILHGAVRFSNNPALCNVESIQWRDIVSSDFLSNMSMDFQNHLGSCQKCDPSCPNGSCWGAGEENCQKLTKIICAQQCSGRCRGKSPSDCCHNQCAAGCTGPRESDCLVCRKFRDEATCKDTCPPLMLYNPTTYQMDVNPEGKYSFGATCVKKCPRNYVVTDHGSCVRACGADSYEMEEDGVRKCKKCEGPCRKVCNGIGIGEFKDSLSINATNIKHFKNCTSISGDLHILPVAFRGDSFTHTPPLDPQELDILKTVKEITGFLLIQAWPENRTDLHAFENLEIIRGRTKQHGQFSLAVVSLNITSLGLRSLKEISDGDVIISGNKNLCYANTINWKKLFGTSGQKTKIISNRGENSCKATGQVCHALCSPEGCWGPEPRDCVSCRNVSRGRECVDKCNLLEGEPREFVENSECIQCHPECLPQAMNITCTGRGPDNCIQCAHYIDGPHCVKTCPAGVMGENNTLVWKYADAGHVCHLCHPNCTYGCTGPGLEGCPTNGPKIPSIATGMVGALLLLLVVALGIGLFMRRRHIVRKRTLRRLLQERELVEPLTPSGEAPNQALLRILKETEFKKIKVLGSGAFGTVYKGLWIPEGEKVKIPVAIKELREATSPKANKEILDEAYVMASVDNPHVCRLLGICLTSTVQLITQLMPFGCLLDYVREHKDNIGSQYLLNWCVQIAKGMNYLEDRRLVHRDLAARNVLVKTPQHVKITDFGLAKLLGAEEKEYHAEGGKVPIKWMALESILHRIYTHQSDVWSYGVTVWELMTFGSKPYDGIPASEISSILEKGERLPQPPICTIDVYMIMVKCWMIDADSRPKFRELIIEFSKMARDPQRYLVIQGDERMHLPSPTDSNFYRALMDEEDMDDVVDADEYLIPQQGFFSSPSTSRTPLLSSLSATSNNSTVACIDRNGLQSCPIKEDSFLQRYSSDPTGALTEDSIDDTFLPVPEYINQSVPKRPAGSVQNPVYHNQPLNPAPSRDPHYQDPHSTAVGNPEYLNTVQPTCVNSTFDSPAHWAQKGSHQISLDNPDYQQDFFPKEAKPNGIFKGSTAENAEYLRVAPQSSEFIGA
Chain of EGFR Del19/C797S (P00533 with tags, fused parts or gaps DEL746-750/C797S): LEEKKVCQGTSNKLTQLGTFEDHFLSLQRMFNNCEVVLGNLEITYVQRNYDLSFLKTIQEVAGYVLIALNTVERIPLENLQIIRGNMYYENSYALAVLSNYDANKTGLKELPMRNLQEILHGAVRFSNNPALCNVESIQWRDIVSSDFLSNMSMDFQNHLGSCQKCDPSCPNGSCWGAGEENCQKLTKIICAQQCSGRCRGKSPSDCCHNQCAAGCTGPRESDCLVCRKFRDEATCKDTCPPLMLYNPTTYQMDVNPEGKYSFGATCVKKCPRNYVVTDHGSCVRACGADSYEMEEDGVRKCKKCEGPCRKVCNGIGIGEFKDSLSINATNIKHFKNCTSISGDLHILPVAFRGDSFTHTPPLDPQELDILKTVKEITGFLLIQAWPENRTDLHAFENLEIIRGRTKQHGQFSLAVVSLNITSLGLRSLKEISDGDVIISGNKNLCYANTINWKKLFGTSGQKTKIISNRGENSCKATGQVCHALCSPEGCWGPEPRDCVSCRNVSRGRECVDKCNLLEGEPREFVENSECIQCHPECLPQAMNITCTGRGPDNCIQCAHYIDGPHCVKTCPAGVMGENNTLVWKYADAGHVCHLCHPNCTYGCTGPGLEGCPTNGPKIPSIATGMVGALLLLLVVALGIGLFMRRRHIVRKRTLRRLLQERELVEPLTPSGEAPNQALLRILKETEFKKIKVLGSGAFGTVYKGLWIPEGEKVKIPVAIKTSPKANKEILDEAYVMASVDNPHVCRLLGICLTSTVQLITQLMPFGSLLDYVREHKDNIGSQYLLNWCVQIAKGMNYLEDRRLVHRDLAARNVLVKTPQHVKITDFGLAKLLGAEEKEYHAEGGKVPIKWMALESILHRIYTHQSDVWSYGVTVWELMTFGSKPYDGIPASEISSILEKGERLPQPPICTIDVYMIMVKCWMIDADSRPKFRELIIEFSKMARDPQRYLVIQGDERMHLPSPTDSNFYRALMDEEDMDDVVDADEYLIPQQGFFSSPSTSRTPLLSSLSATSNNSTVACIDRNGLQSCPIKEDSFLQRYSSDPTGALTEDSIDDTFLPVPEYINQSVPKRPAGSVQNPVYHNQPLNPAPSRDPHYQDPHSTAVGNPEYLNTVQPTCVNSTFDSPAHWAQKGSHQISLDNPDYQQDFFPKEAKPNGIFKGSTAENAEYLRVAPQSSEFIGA
Chain of EGFR L858R/C797S (P00533 25-1210 C797S/L858R): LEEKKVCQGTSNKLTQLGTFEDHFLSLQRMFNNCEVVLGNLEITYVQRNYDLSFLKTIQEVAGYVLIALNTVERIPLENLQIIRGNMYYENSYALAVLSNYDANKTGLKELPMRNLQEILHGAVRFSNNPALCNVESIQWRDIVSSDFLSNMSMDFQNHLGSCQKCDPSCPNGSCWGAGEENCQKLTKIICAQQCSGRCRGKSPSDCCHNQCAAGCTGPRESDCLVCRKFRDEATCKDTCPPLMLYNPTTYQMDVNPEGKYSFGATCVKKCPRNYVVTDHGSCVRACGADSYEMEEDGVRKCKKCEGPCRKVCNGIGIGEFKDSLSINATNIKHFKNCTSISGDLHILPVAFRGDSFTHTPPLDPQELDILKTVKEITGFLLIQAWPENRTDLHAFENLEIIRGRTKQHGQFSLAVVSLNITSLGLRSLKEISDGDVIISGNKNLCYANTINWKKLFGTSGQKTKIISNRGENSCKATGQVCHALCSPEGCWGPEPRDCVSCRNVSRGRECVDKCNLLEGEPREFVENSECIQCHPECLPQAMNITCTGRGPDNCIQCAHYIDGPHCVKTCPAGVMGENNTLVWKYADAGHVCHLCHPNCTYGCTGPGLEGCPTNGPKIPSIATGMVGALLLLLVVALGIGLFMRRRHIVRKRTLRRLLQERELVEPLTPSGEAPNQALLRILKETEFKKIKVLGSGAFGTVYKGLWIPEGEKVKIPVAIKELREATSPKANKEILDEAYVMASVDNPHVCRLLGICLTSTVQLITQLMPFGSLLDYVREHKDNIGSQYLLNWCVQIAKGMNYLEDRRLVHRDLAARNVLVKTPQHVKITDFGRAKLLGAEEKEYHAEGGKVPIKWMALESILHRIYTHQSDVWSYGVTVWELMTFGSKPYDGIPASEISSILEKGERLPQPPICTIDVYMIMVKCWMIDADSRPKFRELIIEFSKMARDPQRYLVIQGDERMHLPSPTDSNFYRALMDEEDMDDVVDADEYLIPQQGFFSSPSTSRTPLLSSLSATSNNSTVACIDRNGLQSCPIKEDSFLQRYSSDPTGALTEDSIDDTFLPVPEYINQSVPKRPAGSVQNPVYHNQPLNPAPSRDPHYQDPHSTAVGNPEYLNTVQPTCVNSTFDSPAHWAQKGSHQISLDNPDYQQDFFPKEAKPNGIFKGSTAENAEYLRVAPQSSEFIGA

Compound	IC50 (EGFR Del19/C797S; [1]) [nM]	IC50 (EGFR Del19/C797S; [2]) [nM]	IC50 (EGFR Del19/T790M/C797S; [3]) [nM]	IC50 (EGFR Del19/T790M/C797S; [4]) [nM]	IC50 (EGFR L858R/C797S; [5]) [nM]	IC50 (EGFR L858R/C797S; [6]) [nM]	IC50 (EGFR wildtype (WT); [7]) [nM]	IC50 (EGFR wildtype (WT); IC50 WT (nM), 100 μM ATP) [nM]	IC50 (EGFR L858R/T790M/C797S; [8]) [nM]	IC50 (EGFR L858R/T790M/C797S; [9]) [nM]
CN(C)CCC1CCN(c2cc(Nc3ccnc(-c4cnn(S(=O)(=O)C5CC5)c4)n3)ncc2C#Cc2cnn(C)c2)CC1 [Example 294, 2-(1-(Cyclopropylsulfonyl)-1H-pyrazol-4-yl)-N-(4-(4-(2-(dimethylamino)ethyl)piperidin-1-yl)-5-((1-methyl-1H-pyrazol-4-yl)ethynyl)pyridin-2-yl)pyrimidin-4-amine formate]	0.2	0.2	0.1	0.1	0.3	1.6	0.6	351	0.1	0.1
CN(C)CC1CCN(c2cc(Nc3ccnc(-c4cnn(S(=O)(=O)C5CC5)c4)n3)ncc2C#Cc2cnn(C)c2)CC1 [Example 295, 2-(1-(Cyclopropylsulfonyl)-1H-pyrazol-4-yl)-N-(4-(4-((dimethylamino)methyl)piperidin-1-yl)-5-((1-methyl-1H-pyrazol-4-yl)ethynyl)pyridin-2-yl)pyrimidin-4-amine]		9.9		0.8		68.2		> 10000		2.4
CN(C)CC1(C)CCN(c2cc(Nc3ccnc(-c4cnn(S(=O)(=O)C5CC5)c4)n3)ncc2C#Cc2cnn(C)c2)CC1 [Example 296, 2-(1-(Cyclopropylsulfonyl)-1H-pyrazol-4-yl)-N-(4-(4-((dimethylamino)methyl)-4-methylpiperidin-1-yl)-5-((1-methyl-1H-pyrazol-4-yl)ethynyl)pyridin-2-yl)pyrimidin-4-amine]	0.6	0.6	0.1	0.1	1.4	9	4.4	3250	0.1	0.3
CN1CCC2(CCN(c3cc(Nc4ccnc(-c5cnn(S(=O)(=O)C6CC6)c5)n4)ncc3C#Cc3cnn(C)c3)CC2)C1 [Example 297, 2-(1-(Cyclopropylsulfonyl)-1H-pyrazol-4-yl)-N-(5-((1-methyl-1H-pyrazol-4-yl)ethynyl)-4-(2-methyl-2,8-diazaspiro[4.5]decan-8-yl)pyridin-2-yl)pyrimidin-4-amine formate]	1.2	3.2	0.1	0.1	1	38.1	4.1	4180	0.1	0.2
CN(C)CC1CCN(c2cc(Nc3ccnc(-c4cnn(S(=O)(=O)C5CC5)c4)n3)ncc2C#Cc2cnn(C3CC3)c2)CC1 [Example 298, N-(5-((1-Cyclopropyl-1H-pyrazol-4-yl)ethynyl)-4-(4-((dimethylamino)methyl)piperidin-1-yl)pyridin-2-yl)-2-(1-(cyclopropylsulfonyl)-1H-pyrazol-4-yl)pyrimidin-4-amine]	5.3	12	0.3	0.4	18.5	140	23	> 10000	0.4	1.5
CN(C)CC1(C)CCN(c2cc(Nc3ccnc(-c4cnn(S(=O)(=O)C5CC5)c4)n3)ncc2C#Cc2cnn(C3CC3)c2)CC1 [Example 299, N-(5-((1-Cyclopropyl-1H-pyrazol-4-yl)ethynyl)-4-(4-((dimethylamino)methyl)-4-methylpiperidin-1-yl)pyridin-2-yl)-2-(1-(cyclopropylsulfonyl)-1H-pyrazol-4-yl)pyrimidin-4-amine]	1.1	1	0.2	0.2	1.4	17.2	4.7	7510	0.1	0.2
CN(C)CC1(F)CCN(c2cc(Nc3ccnc(-c4cnn(S(=O)(=O)C5CC5)c4)n3)ncc2C#Cc2cnn(C3CC3)c2)CC1 [Example 300, N-(5-((1-Cyclopropyl-1H-pyrazol-4-yl)ethynyl)-4-(4-((dimethylamino)methyl)-4-fluoropiperidin-1-yl)pyridin-2-yl)-2-(1-(cyclopropylsulfonyl)-1H-pyrazol-4-yl)pyrimidin-4-amine]	3.3	10.3	0.9	0.9	13.5	288	26.8	> 10000	1.1	1.5
CN(C)CC1CCN(c2cc(Nc3ccnc(-c4cnn(S(=O)(=O)C5CC5)c4)n3)ncc2C#Cc2cnn(CC(F)F)c2)CC1 [Example 301, 2-(1-(Cyclopropylsulfonyl)-1H-pyrazol-4-yl)-N-(5-((1-(2,2-difluoroethyl)-1H-pyrazol-4-yl)ethynyl)-4-(4-((dimethylamino)methyl)piperidin-1-yl)pyridin-2-yl)pyrimidin-4-amine]	7.2	4.9	0.6	0.7	11.2	138	22.9	> 10000	0.6	1.4
CN(C)CC1(C)CCN(c2cc(Nc3ccnc(-c4cnn(S(=O)(=O)C5CC5)c4)n3)ncc2C#Cc2cnn(CC(F)F)c2)CC1 [Example 302, 2-(1-(Cyclopropylsulfonyl)-1H-pyrazol-4-yl)-N-(5-((1-(2,2-difluoroethyl)-1H-pyrazol-4-yl)ethynyl)-4-(4-((dimethylamino)methyl)-4-methylpiperidin-1-yl)pyridin-2-yl)pyrimidin-4-amine]	0.8	0.7	0.1	0.3	1.5	11.5	5	2690	0.1	0.3
CN(C)CCC1CCN(c2cc(Nc3ccnc(-c4cnn(S(=O)(=O)C5CC5)c4)n3)ncc2C#Cc2cnn(CC(F)F)c2)CC1 [Example 303, 2-(1-(Cyclopropylsulfonyl)-1H-pyrazol-4-yl)-N-(5-((1-(2,2-difluoroethyl)-1H-pyrazol-4-yl)ethynyl)-4-(4-(2-(dimethylamino)ethyl)piperidin-1-yl)pyridin-2-yl)pyrimidin-4-amine]	0.4	0.3	0.1	0.3	0.6	3.4	1.4	206	0.1	0.2
O=S(=O)(C1CC1)n1cc(-c2nccc(Nc3cc(N[C@H]4CC[C@](O)(CO)CC4)c(C#Cc4cnn(C(F)F)c4)cn3)n2)cn1 [Example 304, (1s,4s)-4-((2-((2-(1-(Cyclopropylsulfonyl)-1H-pyrazol-4-yl)pyrimidin-4-yl)amino)-5-((1-(difluoromethyl)-1H-pyrazol-4-yl)ethynyl)pyridin-4-yl)amino)-1-(hydroxymethyl)cyclohexan-1-ol]		64		2.7		103		> 10000		5.3
